Target: T1, tNOX activity of HeLa S cells (Homo sapiens, UniProt Q16206)
T1 construct: Response of the NADH oxidase of HeLa S cells to (−)-epigallocatechin gallate (EGCg) alone; endogenous in cells; methods say ATCC CCL2
T1 sequence (Q16206 1-610): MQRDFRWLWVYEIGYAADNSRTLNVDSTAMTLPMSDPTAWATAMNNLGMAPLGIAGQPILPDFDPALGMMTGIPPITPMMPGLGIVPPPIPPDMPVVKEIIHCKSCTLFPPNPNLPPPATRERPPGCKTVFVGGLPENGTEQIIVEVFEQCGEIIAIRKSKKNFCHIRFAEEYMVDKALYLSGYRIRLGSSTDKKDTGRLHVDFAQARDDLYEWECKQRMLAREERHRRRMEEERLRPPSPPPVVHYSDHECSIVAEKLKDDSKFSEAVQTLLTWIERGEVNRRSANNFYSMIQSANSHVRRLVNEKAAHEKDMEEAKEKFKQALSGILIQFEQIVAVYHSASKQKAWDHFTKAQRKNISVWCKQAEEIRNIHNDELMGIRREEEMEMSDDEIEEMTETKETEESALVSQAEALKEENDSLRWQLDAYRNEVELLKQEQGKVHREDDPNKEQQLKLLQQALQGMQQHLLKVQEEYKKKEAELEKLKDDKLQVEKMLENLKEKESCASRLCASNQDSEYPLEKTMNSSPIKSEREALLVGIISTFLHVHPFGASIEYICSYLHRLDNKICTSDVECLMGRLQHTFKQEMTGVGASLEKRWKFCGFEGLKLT
Experiment: NADH oxidase of intact HeLa (HeLa S) cells
Type: cell-based
Procedure: HeLa (ATCC CCL2) cells were grown in 150 cm^2 flasks in Minimal Essential Medium (Gibco), pH 7.4, at 37° C. with 10% bovine calf serum (heat-inactivated), plus 50 mg/l gentamicin sulfate (Sigma). Cells were trypsinized with Sigma IX trypsin for 1 to 2 min and harvested by scraping and taken up in 140 mM NaCl, 5 mM KCl, 0.7 mM Na2HPO4 and 25 mM Tris, pH 7.4, to a final cell concentration of 0.1 g wet weight (gww) per ml.
NADH oxidase activity was determined as the disappearance of NADH measured at 340 nm in a reaction mixture containing 25 mM Tris-Mes buffer (pH 7.2), 1 mM KCN, and 150 μM NADH at 37° C. Activity was measured using a Hitachi U3210 spectrophotometer with stirring and continuous recording over two intervals of 5 min each. A millimolar extinction coefficient of 6.22 was used to determine specific activity.

(−) - epigallocatechin gallate [EGCg]
EGCg concentration at which NOX activity was stimulated: ≥ 10^−5 M | EGCg concentration for maximal inhibition of tNOX activity (EGCg alone, FIG. 12): 0.1 µM
